In ChEMBL document CHEMBL1126427, “Synthesis of a potent, reversible inhibitor of interleukin-1 converting enzyme” (Bioorg Med Chem Lett, 1992):

Biological target: T1, Caspase-1 (Homo sapiens, UniProt P29466)
T1 sequence (P29466 whole entry): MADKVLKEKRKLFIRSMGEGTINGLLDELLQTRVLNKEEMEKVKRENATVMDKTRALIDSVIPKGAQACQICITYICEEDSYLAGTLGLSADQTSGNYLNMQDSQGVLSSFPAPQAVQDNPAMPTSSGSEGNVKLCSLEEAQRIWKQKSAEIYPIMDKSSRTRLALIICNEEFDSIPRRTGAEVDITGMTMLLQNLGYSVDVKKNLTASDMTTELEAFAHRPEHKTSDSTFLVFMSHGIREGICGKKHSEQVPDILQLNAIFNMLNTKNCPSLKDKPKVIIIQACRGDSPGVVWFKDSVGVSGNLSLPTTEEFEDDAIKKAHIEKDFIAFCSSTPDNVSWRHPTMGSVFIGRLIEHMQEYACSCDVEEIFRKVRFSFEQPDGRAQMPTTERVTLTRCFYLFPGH
Test: The compound was tested for inhibition of IL-1 beta converting enzyme in whole human blood.

CC(=O)N[C@@H](Cc1ccc(O)cc1)C(=O)N[C@H](C(=O)N[C@@H](C)C(=O)N[C@H](C=O)CC(=O)O)C(C)C
Ki: 760 pM
